From patent US12173007B2, “Imidazopyridazine IL-17 inhibitor compounds” (Janssen Pharmaceutica NV, priority 2021, dated 2024)

Tests used:
[1] = test system: IL-17A-induced G-CSF production in human normal keratinocyte (NHK); assay: NHK assay: IL-17A-induced G-CSF production in normal human keratinocytes; format: cell-based; settings: Homo sapiens, Keratinocyte, 24 h, IL-17A 5 ng/mL, G-CSF by HTRF, average if tested more than once
Procedure: IL-17A acts directly on keratinocytes through binding to dimeric receptor IL-17RA/RC and drives the production of a number of inflammatory mediators known to be elevated in psoriasis lesional tissue. IL-17A small molecule inhibitors that block the IL-17A to interact with IL-17R would inhibit the IL-17A signaling in its targeted cells such as keratinocytes. The compound functional activity is evaluated for its impact on IL-17A-induced G-CSF production in human normal keratinocyte (NHK).
Adult normal human keratinocytes are cultured in keratinocyte growth medium (Lonza) in a flask till reaching ˜90% confluence, then cells are transferred to a 384-well plate at density of 3000-4000 cell/well. Recombinant human IL-17A (Gibco PHC9174) is pre-incubated with titrated compound or DMSO for 1 h at rt then added to the cell culture plate. The final concentration of IL-17A is 5 ng/mL and DMSO is 0.2%, in the culture containing 5% FBS. Cells are cultured/treated for 24 h at 37° C. Supernatants are collected and G-CSF production is measured through HTRF technology using Human G-CSF Kit (CisBio). G-CSF concentration was extrapolated from the standard curve and IC50 is determined using GraphPad Prism. Cell viability is also evaluated using CellTiter-Glo kit (Promega) and effect of compound on cell viability is compared to DMSO control.

[2] = molecular target: IL-17A(FLAG-Tagged): IL-17RA(His-Tagged) binding (Homo sapiens, UniProt Q16552, K93Q); assay: IL-17A(FLAG-tagged):IL-17RA(His-tagged) binding disruption Eu-HTRF assay, Protocol 2; settings: FLAG-IL-17A 1 nM; average if tested more than once
From the text: IL-17A(FLAG-Tagged): IL-17RA(His-Tagged) Binding Disruption Eu-HTRF Assay
An antibody directed against the FLAG tag of IL-17A (SEQ ID NO: 1) is labeled with the HTRF donor chromophore (Europium-cryptate). IL-17A is present as a dimer that is “locked into” this quaternary structure due to the formation of loop-spanning […] disulfide bridges. The construct of IL-17RA used in the assay excludes the […] portion of the receptor and is fused to a C-terminal 10×His tag (SEQ ID NO:2). An antibody directed against the His tag of the IL-17RA chimera is labeled with the HTRF acceptor chromophore (“D2”). The fluorescence-resonance energy transfer (FRET) depends on the vicinity of the donor chromophore to the acceptor, and interruption of the binding between the IL-17A and IL-17RA causes the reduction/loss of FRET. Therefore, this assay allows to evaluate the compound effect on the binding IL-17A and IL-17RA by monitoring the fluorescence intensity of donor vs acceptor. The assay was run using either Protocol 1 or Protocol 2 as described below.
Protocol 2. 40 nl of 2-fold serial diluted compound solution for total 22 dilution points is added into each well of a 1536-well, white, low-volume, non-binding plate (Greiner #782904), then 2 μl of FLAG tagged IL-17A at 2×final concentration (1 nM) in solution of PBS+0.01% Triton-X100 is added to each well. The assay plate is briefly centrifuged then incubated for 1 h at rt. A mixed solution is prepared containing 2×5 nM 10HIS×IL-17RA, 2×2.5 nM Eu-anti-FLAG (CISBIO), 2×5 nM D2-anti-HIS (CISBIO) in PBS+0.01% Triton-X100+200 mM Potassium Fluoride (Sigma 60238) and 2 μl of mix is added to each well of the assay plate. The plate is briefly centrifuged then incubated for 2 h at rt. The HTRF intensities at the wavelength of donor (615 nm) and acceptor (665 nm) are measured using BMG Pherastar. The ratio between intensities at two wavelengths is calculated and plotted against the compound concentration and the data is fitted to a one-site competition model to yield IC50 of the compound.

UniProt Q16552, sequence (Q16552 with tags, fused parts or gaps K93Q): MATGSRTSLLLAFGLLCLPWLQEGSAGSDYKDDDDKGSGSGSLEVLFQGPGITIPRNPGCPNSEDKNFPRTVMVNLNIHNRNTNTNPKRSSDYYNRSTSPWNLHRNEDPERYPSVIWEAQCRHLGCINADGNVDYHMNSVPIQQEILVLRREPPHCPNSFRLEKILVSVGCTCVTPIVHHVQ

Row | IC50 [2] [nM] | Compound | IC50 [1] [nM]
1 | < 50 | COC[C@H](c1cnn2cc([C@@H](NC(=O)c3nonc3C3CC3)[C@@H](C)OC3CC3)nc2c1)N1CC(F)(F)CNC1=O (relative stereo) [Example 54, N-((1R*,2R*)-2-Cyclopropoxy-1-(7-((S)-1-(5,5-difluoro-2-oxotetrahydropyrimidin-1(2H)-yl)-2-methoxyethyl)imidazo[1,2-b]pyridazin-2-yl)propyl)-4-cyclopropyl-1,2,5-oxadiazole-3-carboxamide] | 50 to 100
2 | > 100 | COC[C@H](c1cnn2cc([C@@H](NC(=O)c3nonc3C3CC3)[C@H](C)OC3CC3)nc2c1)N1CC(F)(F)CNC1=O (relative stereo) [Example 55, N-((1R*,2S*)-2-cyclopropoxy-1-(7-((S)-1-(5,5-difluoro-2-oxotetrahydropyrimidin-1(2H)-yl)-2-methoxyethyl)imidazo[1,2-b]pyridazin-2-yl)propyl)-4-cyclopropyl-1,2,5-oxadiazole-3-carboxamide] | > 100
3 | > 100 | COC[C@H](c1cnn2cc([C@@H](NC(=O)c3nonc3C)[C@H](C)OC(C)(C)C(F)(F)F)nc2c1)N1CC(F)(F)CNC1=O (relative stereo) [Example 61, N-((1R*,2S*)-1-(7-((S)-1-(5,5-Difluoro-2-oxotetrahydropyrimidin-1(2H)-yl)-2-methoxyethyl)imidazo[1,2-b]pyridazin-2-yl)-2-((1,1,1-trifluoro-2-methylpropan-2-yl)oxy)propyl)-4-methyl-1,2,5-oxadiazole-3-carboxamide] | > 100
4 | < 50 | COC[C@H](c1cnn2cc([C@@H](NC(=O)c3nonc3C3CC3)[C@@H](C)OC3(C(F)(F)F)CC3)nc2c1)N1CC(F)(F)CNC1=O (relative stereo) [Example 90, 4-Cyclopropyl-N-((1R*,2R*)-1-(7-((S)-1-(5,5-difluoro-2-oxotetrahydropyrimidin-1(2H)-yl)-2-methoxyethyl)imidazo[1,2-b]pyridazin-2-yl)-2-(1-(trifluoromethyl)cyclopropoxy)propyl)-1,2,5-oxadiazole-3-carboxamide] | < 50
5 | 50 to 100 | COC[C@H](c1cnn2cc([C@@H](NC(=O)c3nonc3C3CC3)[C@H](C)OC3(C(F)(F)F)CC3)nc2c1)N1CC(F)(F)CNC1=O (relative stereo) [Example 91, 4-Cyclopropyl-N-((1R*,2S*)-1-(7-((S)-1-(5,5-difluoro-2-oxotetrahydropyrimidin-1(2H)-yl)-2-methoxyethyl)imidazo[1,2-b]pyridazin-2-yl)-2-(1-(trifluoromethyl)cyclopropoxy)propyl)-1,2,5-oxadiazole-3-carboxamide] | > 100
6 | 50 to 100 | COc1nonc1C(=O)N[C@@H](CCC(C)(C)C(F)(F)F)c1cn2ncc(CN3C[C@@H]4[C@H](CNC3=O)C4(F)F)cc2n1 (relative stereo) [Example 116, N—((S)-1-(7-(((1S*,7R*)-8,8-Difluoro-4-oxo-3,5-diazabicyclo[5.1.0]octan-3-yl)methyl)imidazo[1,2-b]pyridazin-2-yl)-5,5,5-trifluoro-4,4-dimethylpentyl)-4-methoxy-1,2,5-oxadiazole-3-carboxamide] | > 100
7 | – | COC[C@H](c1cnn2cc([C@@H](NC(=O)c3nonc3C)[C@@H](C)O[C@H](C)C(F)(F)F)nc2c1)N1CC(F)(F)CNC1=O [Example 53, N-((1R,2R)-1-(7-((S)-1-(5,5-Difluoro-2-oxotetrahydropyrimidin-1(2H)-yl)-2-methoxyethyl)imidazo[1,2-b]pyridazin-2-yl)-2-(((R)-1,1,1-trifluoropropan-2-yl)oxy)propyl)-4-methyl-1,2,5-oxadiazole-3-carboxamide] | < 50
8 | – | Cc1nonc1C(=O)N[C@@H](COC(C)(C)C(F)(F)F)c1cn2ncc([C@@H](C3CC3)N3CC(F)(F)CNC3=O)cc2n1 [Example 62, N—((R)-1-(7-((R)-Cyclopropyl(5,5-difluoro-2-oxotetrahydropyrimidin-1(2H)-yl)methyl)imidazo[1,2-b]pyridazin-2-yl)-2-((1,1,1-trifluoro-2-methylpropan-2-yl)oxy)ethyl)-4-methyl-1,2,5-oxadiazole-3-carboxamide] | 50 to 100
9 | – | C[C@H](c1cnn2cc([C@@H](NC(=O)c3nonc3C3CC3)C3CCC(F)(F)CC3)nc2c1)N1CC(F)(F)CNC1=O [Example 63, 4-Cyclopropyl-N—((S)-(7-((R)-1-(5,5-difluoro-2-oxotetrahydropyrimidin-1(2H)-yl)ethyl)imidazo[1,2-b]pyridazin-2-yl)(4,4-difluorocyclohexyl)methyl)-1,2,5-oxadiazole-3-carboxamide] | < 50
10 | – | COC[C@H](c1cnn2cc([C@H](COC(C)(C)C(F)(F)F)NC(=O)c3nonc3C3CC3)nc2c1)N1CC(F)(F)CNC1=O [Example 64, 4-Cyclopropyl-N—((R)-1-(7-((S)-1-(5,5-difluoro-2-oxotetrahydropyrimidin-1(2H)-yl)-2-methoxyethyl)imidazo[1,2-b]pyridazin-2-yl)-2-((1,1,1-trifluoro-2-methylpropan-2-yl)oxy)ethyl)-1,2,5-oxadiazole-3-carboxamide] | < 50
11 | – | COC[C@H](c1cnn2cc([C@H](COC(C)(C)C(F)(F)F)NC(=O)c3ccnn3C(C)C)nc2c1)N1CC(F)(F)CNC1=O [Example 65, N—((R)-1-(7-((S)-1-(5,5-Difluoro-2-oxotetrahydropyrimidin-1(2H)-yl)-2-methoxyethyl)imidazo[1,2-b]pyridazin-2-yl)-2-((1,1,1-trifluoro-2-methylpropan-2-yl)oxy)ethyl)-1-isopropyl-1H-pyrazole-5-carboxamide] | < 50
12 | – | COC[C@H](c1cnn2cc([C@H](CC(C)(C)C(F)(F)F)NC(=O)c3nonc3C)nc2c1)N1CC(F)(F)CNC1=O [Example 66, N—((S)-1-(7-((S)-1-(5,5-Difluoro-2-oxotetrahydropyrimidin-1(2H)-yl)-2-methoxyethyl)imidazo[1,2-b]pyridazin-2-yl)-4,4,4-trifluoro-3,3-dimethylbutyl)-4-methyl-1,2,5-oxadiazole-3-carboxamide] | 50 to 100
13 | – | COC[C@H](c1cnn2cc([C@@H](CCC(C)(C)C(F)(F)F)NC(=O)c3nonc3C)nc2c1)N1CC(F)(F)CNC1=O [Example 67, N—((R)-1-(7-((S)-1-(5,5-Difluoro-2-oxotetrahydropyrimidin-1(2H)-yl)-2-methoxyethyl)imidazo[1,2-b]pyridazin-2-yl)-5,5,5-trifluoro-4,4-dimethylpentyl)-4-methyl-1,2,5-oxadiazole-3-carboxamide] | > 100
14 | – | C[C@H](c1cnn2cc([C@H](COC(C)(C)C(F)(F)F)NC(=O)c3nonc3C3CC3)nc2c1)N1CC(F)(F)CNC1=O [Example 87, 4-Cyclopropyl-N—((R)-1-(7-((R)-1-(5,5-difluoro-2-oxotetrahydropyrimidin-1(2H)-yl)ethyl)imidazo[1,2-b]pyridazin-2-yl)-2-((1,1,1-trifluoro-2-methylpropan-2-yl)oxy)ethyl)-1,2,5-oxadiazole-3-carboxamide] | < 50
15 | – | C[C@H](c1cnn2cc([C@H](CC(C)(C)C(F)(F)F)NC(=O)c3nonc3C3CC3)nc2c1)N1CC(F)(F)CNC1=O [Example 88, 4-Cyclopropyl-N—((S)-1-(7-((R)-1-(5,5-difluoro-2-oxotetrahydropyrimidin-1(2H)-yl)ethyl)imidazo[1,2-b]pyridazin-2-yl)-4,4,4-trifluoro-3,3-dimethylbutyl)-1,2,5-oxadiazole-3-carboxamide] | < 50
